# How the values were obtained:
# [1] = test system: urinary bladder of ovarectomized rats; test: Differential bladder tonus (bladder elasticity) of ovarectomized rats; format: in vivo, rat
# Description: Following a three-month treatment of ovarectomized rats with Cimicifuga racemosa extract, the maximum pressure in the urinary bladder [in mm Hg] and the minimum pressure [in mm Hg] following relaxation of the bladder were determined by instillation of 1 ml of physiological saline solution.
# estrogen receptor-alpha = test: Expression of estrogen receptor-alpha in the urinary bladder; format: in vivo, rat; conditions: ovarectomized rats
# Excerpt: In the bladder both the estrogen receptor ER-alpha and ER-beta are expressed.
# [2] = test system: estrogen receptor of the alpha-subtype; test: Gene expression of estrogen receptor alpha-subtype in the prostate of male castrated rat; format: in vivo
# estrogen receptor-beta = test: Gene expression of estrogen receptor-beta in the prostate of male castrated rat; format: in vivo
# rat prostate = test: In-vivo experiments in the rat prostate in the whole-body model; conditions: castrated rat
# IGF1 = IGF1 gene expression in the prostate of castrated male rats; format: in vivo, rat
structure (smiles),measurement,setting,value
O=C(c1ccc(OCN2CCCCC2)cc1)c1c(-c2ccc(O)cc2)sc2cc(O)ccc12 [Raloxifen],differential pressure between maximum and minimum pressure (bladder elasticity),"[1]; highest Cimicifuga dose 400 mg/kg/d, compared with Raloxifen",comparable
"C[C@]12CC[C@@H]3c4ccc(O)cc4CC[C@H]3[C@@H]1CC[C@@H]2O [estradiol, 17β-estradiol]",differential pressure between maximum and minimum pressure (bladder elasticity),"[1]; three-month treatment, instillation of 1 ml physiological saline, in comparison with placebo controls",most effective substance
same,expression of the estrogen receptor-alpha in the urinary bladder,estrogen receptor-alpha,regulate down
same,gene expression of the estrogen receptor of the alpha-subtype in the prostate,[2],significantly inhibit
same,gene expression of the estrogen receptor-beta in the prostate,estrogen receptor-beta,without having an effect
C[C@]12CC[C@H]3[C@@H](CCC4=CC(=O)CC[C@@]43C)[C@@H]1CC[C@@H]2O [testosterone],prostate regression induced by castration,rat prostate,could be antagonized
same,gene expression of the growth factor IGF1 in the prostate,IGF1,regulated up
